Laboratory results published in US3984555A, “Therapeutic piperazinylalkyl-quinazolone-(4)-derivatives” (Byk Gulden Lomberg Chemische Fabrik Gesellschaft mit …, priority 1970, dated 1976).

Experiments:
[1] = German Published patent application No. 1,231,705 and 1,249,281; cited from earlier work
[2] = LD50 (mean lethal dose) on the mouse (Table II); settings: in vivo
Description: (§1) on the despinalised rat. The mean lethal doses for the mouse are also

[3] = system: blood pressure and cardiac frequency of the narcotised cat; test: Influence on the blood pressure and cardiac frequency of the narcotised cat (Table I); format: in vivo; parameters: unit not given here; settings: for Blood pressure lowered by 30% by: dose lowering blood pressure by 30%; for Blood pressure lowered by 50% by: dose lowering blood pressure by 50%
Description: (§2) Influence on the blood pressure and cardiac frequency and also
(§3) on the carotid sinus reflex of the narcotised cat
(§4) Table I provides a general summary of the influence of different piperazinylquinazolones on the blood pressure, the cardiac frequency and the carotid sinus reflex of the narcotised cat.

[4] = system: mouse; test: Inhibition of spontaneous motility, sedation, muscular relaxation, loss of grip on horizontal wire mesh in mice (Table III, b); format: in vivo; settings: po, dose at which an average of 50% of the mice display symptoms, read-out: b SD50 mg/kg oral
[5] = system: carotid sinus reflex; test: Inhibition of the carotid sinus reflex of the narcotised cat (Table I); format: in vivo; parameters: unit not given here; settings: for Inhibition of the carotid sinus reflex by 30% by: dose for 30% inhibition; for Inhibition of the carotid sinus reflex by 50% by: dose for 50% inhibition
Description: as §2, §3, §4
The inhibition of the carotid sinus reflex brought about by the piperazinyl quinazolones occurs at lower doses than the spontaneous lowering of the blood pressure in the cat.

[6] = system: systolic and diastolic blood pressure; test: Orientating clinical test in patients (FIGS. 1 and 2); format: in vivo, 7 female and 1 male patient
[7] = system: hypertensive effect of noradrenalin; test: 50% inhibition of hypertensive effect of 0.001 mg/kg i/v noradrenalin on the despinalised rat (Table II); format: in vivo; settings: iv, read-out: 50% inhibition of hypertensive effect after i/v dose of Noradrenalin by mg/kg i/v
Description: (§5) also on the hypertensive effect of 0.001 mg/kg i/v 1-adrenalin and
(§6) blood pressure and the cardiac frequency of the narcosed rate and also on
(§7) the hypertensive effect of 0.001 mg/kg i.v. 1-adrenaline and noradrenaline
as §1

[8] = system: mouse; test: Mice falling from a rotating bar (Table III, a); format: in vivo; settings: ip, read-out: a PD50 mg/kg i.p.
Description: The central damping actions of the piperazinyl quinazolones on the mouse can be seen from Table III.
a = dose at which 50% of the mice fall from a rotating bar;

[9] = system: blood pressure and cardiac frequency of the narcotised rat; test: Influence on the blood pressure and the cardiac frequency of the narcotised rat (Table II); format: in vivo; settings: iv, i/v, read-out: Blood pressure lowered by 30% by mg/kg i/v
Description: Influence on the blood pressure and the cardiac frequency of the
blood pressure and the cardiac frequency of the narcosed rate and also on […]

[10] = system: defence reaction after the thermal stimulation of the tail of the mouse; test: Analgesic effect on the mouse: delay in defence reaction after thermal stimulation of the tail (Table IV); format: in vivo; settings: po; mouse; per os; 25% delay; read-out: Delay in the defence reaction after the thermal stimulation of the tail of the mouse by 25% by mg/kg per os
Description: From Table IV below one can see the analgesic action, measured in terms of the delayed reaction during the thermal irritation of the mouse tail. The analgesically effective doses are also below those which reduce the motor behaviour, that is to say the normal movement processes (cf. Table III).
Analgesic effect on the mouse
Delay in the defence reaction after
the thermal stimulation of the tail

[11] = system: duration of sleep of mice under hexobarbital; test: Prolongation of hexobarbital sleep in mice (Table III, d); format: in vivo; settings: Mus musculus, ip; 15 mg/kg i.p.; 75 mg/kg hexobarbital; read-out: d % prolongation of sleep under hexebarbital by 15 mg/kg i.p.
Description: d = percentage prolongation of the duration of sleep of mice which had received 75 mg/kg. of hexobarbital, reckoned on the duration of the sleep of control animals.

[12] = system: running activity of mice pre-treated with α-amphetamine sulphate; test: Inhibition of running activity of mice pre-treated with α-amphetamine sulphate (Table III, c); format: in vivo; settings: Mus musculus, ip, 3 h, 5 mg/kg α-amphetamine sulphate, 180 minutes; for inhibition in vivo at 25 mg/kg: 25mg/kg i/p, read-out: c % inhibition of motility in the treadwheel by 25mg/kg i/p
[13] = system: hypertensive effect of 1-adrenalin; test: 50% inhibition of hypertensive effect of 0.001 mg/kg i/v 1-adrenalin on the despinalised rat (Table II); format: in vivo; settings: iv, read-out: 50% inhibition of hypertensive effect after i/v dose of Adrenalin by mg/kg i/v
Description: as §5, §6, §7, §1

[14] = 10 and 20 mg per os, 7 female and 1 male patient

SMILES: CCOc1ccc2nc(CN(C)C)n(C)c(=O)c2c1 [2-dimethylaminomethyl-3-methyl-6-ethoxyquinazolone-4]
- analgesic action compared with 4-dimethylamino-1-phenyl-2,3-dimethylpyrazolone-5 [1]: comparable

SMILES: COc1cc2nc(CCN3CCN(c4ccccc4OC)CC3)[nH]c(=O)c2cc1OC [Example 6, 2-(2-(1-(2-methoxyphenyl)piperazinyl-4)ethyl)-6,7-dimethoxy-4(3H)-quinazolone]
- LD50 [2]: 600 mg/kg
- Blood pressure lowered by 30% by [3]: 0.07
- Blood pressure lowered by 50% by [3]: 0.61
- ED50 [4]: 40 mg/kg
- Inhibition of the carotid sinus reflex by 30% by [5]: 0.12
- Inhibition of the carotid sinus reflex by 50% by [5]: 0.35
- effect on the sensorium [6, 14]: no effect on the sensorium
- lowering of the diastolic blood pressure [6, 14]: statistically significant lowering
- lowering of the systolic blood pressure [6, 14]: statistically significant lowering
- tolerance [6, 14]: very good tolerance
- difference in the action of 10 and 20 mg. ([6]; 10 vs 20 mg, FIGS. 1 and 2): statistically confirmed
- dose dependence of the lowering of the blood pressure ([6]; mean initial blood pressure 171.9 mm Hg systolic, 95.3 mm Hg diastolic, FIGS. 1 and 2): dependent upon the dose
- ED50 [7]: > 2.5 mg/kg
- ED50 [8]: 34 mg/kg
- ED30 [9]: 0.35 mg/kg
- ED25 [10]: 1.5 mg/kg
- change in vivo at 15 mg/kg [11]: 79%
- inhibition in vivo at 12 mg/kg ([12]; 12mg/kg i/p, read-out: c % inhibition of motility in the treadwheel by 12mg/kg i/p): 19%
- inhibition in vivo at 25 mg/kg [12]: 28%
- ED50 [13]: 0.036 mg/kg

SMILES: COc1cc2nc(CCN3CCN(c4ccccc4F)CC3)[nH]c(=O)c2cc1OC [Example 14, 2-(2-(1-(2-fluorophenyl)piperazinyl-4)ethyl)-6,7-dimethoxy-4(3H)-quinazolone]
- LD50 [2]: 150 mg/kg
- Blood pressure lowered by 30% by [3]: 0.9
- Blood pressure lowered by 50% by [3]: > 1.6
- ED50 [4]: 180 mg/kg
- Inhibition of the carotid sinus reflex by 30% by [5]: 0.04
- Inhibition of the carotid sinus reflex by 50% by [5]: 0.15
- ED50 [7]: > 2.5 mg/kg
- ED50 [8]: 61 mg/kg
- ED30 [9]: 0.18 mg/kg
- ED25 [10]: 2 mg/kg
- change in vivo at 15 mg/kg [11]: 68%
- inhibition in vivo at 25 mg/kg [12]: 1%
- ED50 [13]: 0.058 mg/kg
